Earlier results in patent US11549142B2, “CETP inhibitors for therapeutic use” (Hoffmann-La Roche Inc., priority 2013, dated 2023).
Where two headings read alike, the source gives them in different places.

How the values were obtained:
[1] = target: T1, CETP (Homo sapiens, UniProt P11597); details: humans; de Grooth et al.; cited from earlier work
T1 construct: host or cells: humans treated with the compound (endogenous plasma CETP)
T1 sequence (P11597 18-493): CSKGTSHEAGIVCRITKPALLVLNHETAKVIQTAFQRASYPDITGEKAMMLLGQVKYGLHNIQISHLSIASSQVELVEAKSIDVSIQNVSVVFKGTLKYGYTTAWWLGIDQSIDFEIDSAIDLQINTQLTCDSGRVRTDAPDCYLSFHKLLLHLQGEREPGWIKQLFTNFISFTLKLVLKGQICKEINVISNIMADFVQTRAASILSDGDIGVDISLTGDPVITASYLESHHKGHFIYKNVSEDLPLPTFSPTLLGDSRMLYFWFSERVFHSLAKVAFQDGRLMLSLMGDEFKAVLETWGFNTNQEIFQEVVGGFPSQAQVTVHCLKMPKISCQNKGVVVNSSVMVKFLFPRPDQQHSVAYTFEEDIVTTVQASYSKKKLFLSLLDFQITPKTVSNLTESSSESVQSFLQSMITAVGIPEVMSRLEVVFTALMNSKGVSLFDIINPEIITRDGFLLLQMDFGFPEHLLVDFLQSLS

[2] = target: T2, CETP (Oryctolagus cuniculus, UniProt P22687); details: rabbits; Shinkai et al., Kobayashi et al., Okamoto et al.; cited from earlier work
T2 construct: host or cells: rabbits (endogenous plasma CETP)
T2 sequence (P22687 2-497): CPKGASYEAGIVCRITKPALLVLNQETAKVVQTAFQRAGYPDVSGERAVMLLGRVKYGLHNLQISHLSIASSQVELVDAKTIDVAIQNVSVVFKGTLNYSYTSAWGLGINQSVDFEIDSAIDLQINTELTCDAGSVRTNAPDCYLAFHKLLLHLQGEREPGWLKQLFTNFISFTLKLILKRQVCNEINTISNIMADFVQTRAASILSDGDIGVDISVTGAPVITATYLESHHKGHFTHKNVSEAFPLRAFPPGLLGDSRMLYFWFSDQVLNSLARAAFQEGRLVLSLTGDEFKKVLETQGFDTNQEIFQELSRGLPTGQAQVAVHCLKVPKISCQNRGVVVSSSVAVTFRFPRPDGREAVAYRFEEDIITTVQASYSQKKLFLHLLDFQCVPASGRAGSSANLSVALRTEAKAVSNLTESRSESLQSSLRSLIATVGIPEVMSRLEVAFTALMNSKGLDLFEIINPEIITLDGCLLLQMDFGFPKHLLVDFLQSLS

[3] = rabbits, Okamoto et al., cited from earlier work
[4] = humans; de Grooth et al.; cited from earlier work

CCC(CC)CC1(C(=O)Nc2ccccc2SC(=O)C(C)C)CCCCC1 [dalcetrapib, thioisobutyric acid S-(2-{[1-(2-ethyl-butyl)-cyclohexanecarbonyl]-amino}-phenyl) ester]
CETP activity [1]: inhibitor of CETP activity | CETP activity [2]: inhibitor of CETP activity | LDL cholesterol [3]: decrease LDL cholesterol | plasma HDL cholesterol ([3]; Shinkai et al., Kobayashi et al.): increase plasma HDL cholesterol | LDL cholesterol [4]: decrease LDL cholesterol | plasma HDL cholesterol [4]: increase plasma HDL cholesterol
